PubChem BioAssay AID248 (DTP/NCI, 2004)
Several values for one entry are separate records, joined by “and”; a condition that tells them apart may be missing. Identical values can stand only once. Toxic doses and inconclusive results are not listed.

System: L1210 leukemia ip in BDF1 mice, survival T/C
Test: NCI In Vivo Anticancer Drug Screen. Data for tumor model L1210 Leukemia (intraperitoneal) in B6D2F1 (BDF1) mice
Details: endpoint: mean survival time, higher = longer survival
How it was run: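 Tumor cells were implanted, animals were treated, and survival was followed. The result divides the treated measurement by the vehicle-control measurement.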

[1] = dose: 100.0 mg/kg/injection, schedule: Q01DX001 (ip), vehicle: saline
[2] = dose: 200.0 mg/kg/injection, schedule: Q01DX001 (ip), vehicle: saline
[3] = dose: 400.0 mg/kg/injection, schedule: Q01DX001 (ip), vehicle: saline
[4] = dose: 100.0 mg/kg/injection, schedule: Q04DX003 (ip), vehicle: saline with Tween-80
[5] = dose: 200.0 mg/kg/injection, schedule: Q04DX003 (ip), vehicle: saline with Tween-80
[6] = dose: 100.0 mg/kg/injection, schedule: Q04DX003 (ip), vehicle: saline
[7] = dose: 200.0 mg/kg/injection, schedule: Q04DX003 (ip), vehicle: saline
[8] = dose: 400.0 mg/kg/injection, schedule: Q04DX003 (ip), vehicle: saline
[9] = dose: 100.0 mg/kg/injection, schedule: Q01DX009 (ip), vehicle: Klucel (hydroxypropylcellulose) (HPC)
[10] = dose: 200.0 mg/kg/injection, schedule: Q01DX009 (ip), vehicle: Klucel (hydroxypropylcellulose) (HPC)
[11] = dose: 400.0 mg/kg/injection, schedule: Q01DX009 (ip), vehicle: Klucel (hydroxypropylcellulose) (HPC)
[12] = dose: 100.0 mg/kg/injection, schedule: Q04DX002 (ip), vehicle: saline with Tween-80
[13] = dose: 200.0 mg/kg/injection, schedule: Q04DX002 (ip), vehicle: saline with Tween-80

Compound: COc1ccc(CN2CCCN(Cc3ccc(OC)cc3OC)C2c2ccc(N(C)C)cc2Cl)c(OC)c1
- T/C (dose: 50.0 mg/kg/injection, schedule: Q01DX001 (ip), vehicle: saline): 97 % of control
- T/C [1]: 101 % of control
- T/C [2]: 95 % of control
- T/C [3]: 95 % of control

Compound: Cc1cc(C#N)cc(C)c1N
- T/C (dose: 75.0 mg/kg/injection, schedule: Q01DX001 (ip), vehicle: other): 100 % of control
- T/C (dose: 150.0 mg/kg/injection, schedule: Q01DX001 (ip), vehicle: other): 95 % of control
- T/C (dose: 300.0 mg/kg/injection, schedule: Q01DX001 (ip), vehicle: other): 105 % of control

Compound: Clc1ccc(C=Nc2ccc(Cl)cc2)cc1
- T/C [4]: 108 % of control
- T/C [5]: 90 % of control
- T/C (dose: 400.0 mg/kg/injection, schedule: Q04DX003 (ip), vehicle: saline with Tween-80): 106 % of control

Compound: O=C(Cc1cccc2ccccc12)N/N=C/c1ccc(Cl)cc1Cl
- T/C (dose: 100.0 mg/kg/injection, schedule: Q01DX009 (ip), vehicle: saline with Tween-80): 96 % of control
- T/C (dose: 200.0 mg/kg/injection, schedule: Q01DX009 (ip), vehicle: saline with Tween-80): 93 % of control

Compound: O=S(=O)([O-])Sn1c(-c2ccccc2)c[n+]2ccccc12
- T/C (dose: 5.0 mg/kg/injection, schedule: Q01DX009 (ip), vehicle: saline): 96 % of control
- T/C (dose: 10.0 mg/kg/injection, schedule: Q01DX001 (ip), vehicle: saline): 102 % of control
- T/C (dose: 10.0 mg/kg/injection, schedule: Q01DX009 (ip), vehicle: saline): 101 % of control
- T/C (dose: 10.0 mg/kg/injection, schedule: Q04DX003 (ip), vehicle: saline): 100 % of control
- T/C (dose: 20.0 mg/kg/injection, schedule: Q01DX001 (ip), vehicle: saline): 100 % of control
- T/C (dose: 20.0 mg/kg/injection, schedule: Q01DX009 (ip), vehicle: saline): 120 % of control
- T/C (dose: 20.0 mg/kg/injection, schedule: Q04DX003 (ip), vehicle: saline): 97 % of control
- T/C (dose: 40.0 mg/kg/injection, schedule: Q01DX001 (ip), vehicle: saline): 96 % of control
- T/C (dose: 40.0 mg/kg/injection, schedule: Q04DX003 (ip), vehicle: saline): 106 % of control

Compound: O=C1OC(=O)C2C1C1C3C=CC3C1C21C=C1 (stereo not drawn)
- T/C (dose: 100.0 mg/kg/injection, schedule: Q01DX009 (ip), vehicle: other): 100 % of control
- T/C [6]: 96 % of control
- T/C (dose: 200.0 mg/kg/injection, schedule: Q01DX009 (ip), vehicle: other): 109 % of control
- T/C [7]: 93 % of control
- T/C (dose: 400.0 mg/kg/injection, schedule: Q01DX009 (ip), vehicle: other): 110 % of control
- T/C [8]: 100 % of control

Compound: COc1ccc(C(=S)N(C)NC(=O)CC(=O)NN(C)C(=S)c2ccc(OC)cc2)cc1
- T/C (dose: 100.0 mg/kg/injection, schedule: Q01DX009 (ip), vehicle: gum acacia): 95 % of control
- T/C (dose: 100.0 mg/kg/injection, schedule: Q04DX003 (ip), vehicle: gum acacia): 92 % of control
- T/C (dose: 200.0 mg/kg/injection, schedule: Q01DX009 (ip), vehicle: gum acacia): 90 % of control
- T/C (dose: 200.0 mg/kg/injection, schedule: Q04DX003 (ip), vehicle: gum acacia): 95 % of control
- T/C (dose: 400.0 mg/kg/injection, schedule: Q04DX003 (ip), vehicle: gum acacia): 96 % of control

Compound: O=C(CCCCn1cnc2c(=S)nc[nH]c21)Nc1ccc(C(=O)O)cc1
- T/C (dose: 50.0 mg/kg/injection, schedule: Q01DX Z (ip), vehicle: carboxymethylcellulose (CMC)): 101 % of control
- T/C (dose: 100.0 mg/kg/injection, schedule: Q01DX Z (ip), vehicle: carboxymethylcellulose (CMC)): 95 % of control
- T/C (dose: 200.0 mg/kg/injection, schedule: Q01DX Z (ip), vehicle: carboxymethylcellulose (CMC)): 104 % of control
- T/C (dose: 400.0 mg/kg/injection, schedule: Q01DX Z (ip), vehicle: carboxymethylcellulose (CMC)): 96 % of control

Compound: Cc1ccc(NC(=O)N(CCBr)N=O)cc1
- T/C (dose: 26.0 mg/kg/injection, schedule: Q01DX015 (ip), vehicle: carboxymethylcellulose (CMC)): 117 % of control
- T/C (dose: 39.0 mg/kg/injection, schedule: Q01DX015 (ip), vehicle: carboxymethylcellulose (CMC)): 101 % of control
- T/C (dose: 58.0 mg/kg/injection, schedule: Q01DX015 (ip), vehicle: carboxymethylcellulose (CMC)): 101 % of control and 121 % of control
- T/C (dose: 88.0 mg/kg/injection, schedule: Q01DX015 (ip), vehicle: carboxymethylcellulose (CMC)): 103 % of control
- T/C (dose: 100.0 mg/kg/injection, schedule: Q01DX001 (ip), vehicle: carboxymethylcellulose (CMC)): 122 % of control
- T/C (dose: 133.0 mg/kg/injection, schedule: Q01DX015 (ip), vehicle: carboxymethylcellulose (CMC)): 89 % of control
- T/C (dose: 266.0 mg/kg/injection, schedule: Q01DX001 (ip), vehicle: carboxymethylcellulose (CMC)): 168 % of control
- T/C (dose: 400.0 mg/kg/injection, schedule: Q01DX001 (ip), vehicle: carboxymethylcellulose (CMC)): 150 % of control and 153 % of control

Compound: CCCCCCC(O)CCc1ccccc1 (stereo not drawn)
- T/C [9]: 103 % of control
- T/C [10]: 102 % of control
- T/C [11]: 113 % of control

Compound: CCCCS(=O)(=O)CCCCCCl
- T/C [1]: 105 % of control
- T/C [2]: 104 % of control
- T/C [3]: 104 % of control

Compound: COc1c(N)cc2c(c1C)OC(C)(C)C=C2
- T/C (dose: 25.0 mg/kg/injection, schedule: Q01DX009 (ip), vehicle: saline with Tween-80): 109 % of control
- T/C (dose: 50.0 mg/kg/injection, schedule: Q01DX009 (ip), vehicle: saline with Tween-80): 101 % of control
- T/C [4]: 101 % of control and 94 % of control
- T/C [5]: 100 % of control

Compound: COC(=O)CCc1c(C)[nH]c(C(=O)OC(C)(C)C)c1C
- T/C (dose: 100.0 mg/kg/injection, schedule: Q01DX001 (ip), vehicle: Klucel (hydroxypropylcellulose) (HPC)): 97 % of control
- T/C (dose: 100.0 mg/kg/injection, schedule: Q04DX003 (ip), vehicle: Klucel (hydroxypropylcellulose) (HPC)): 93 % of control
- T/C (dose: 200.0 mg/kg/injection, schedule: Q01DX001 (ip), vehicle: Klucel (hydroxypropylcellulose) (HPC)): 101 % of control
- T/C (dose: 200.0 mg/kg/injection, schedule: Q04DX003 (ip), vehicle: Klucel (hydroxypropylcellulose) (HPC)): 98 % of control
- T/C (dose: 400.0 mg/kg/injection, schedule: Q01DX001 (ip), vehicle: Klucel (hydroxypropylcellulose) (HPC)): 93 % of control
- T/C (dose: 400.0 mg/kg/injection, schedule: Q04DX003 (ip), vehicle: Klucel (hydroxypropylcellulose) (HPC)): 95 % of control

Compound: COc1cccc(N=Nc2c(N)nc(N)[nH]c2=O)c1
- T/C (dose: 50.0 mg/kg/injection, schedule: Q01DX009 (ip), vehicle: saline): 90 % of control
- T/C (dose: 50.0 mg/kg/injection, schedule: Q04DX003 (ip), vehicle: saline): 101 % of control
- T/C [1]: 104 % of control
- T/C (dose: 100.0 mg/kg/injection, schedule: Q01DX009 (ip), vehicle: saline): 92 % of control
- T/C [6]: 98 % of control
- T/C [2]: 107 % of control
- T/C (dose: 200.0 mg/kg/injection, schedule: Q01DX009 (ip), vehicle: saline): 95 % of control
- T/C [7]: 102 % of control
- T/C [3]: 104 % of control

Compound: CCCCCCCCCCC[CH2][Sn]([Cl])([CH2]CCCCCCCCCCC)[CH2]CCCCCCCCCCC
- T/C [12]: 96 % of control
- T/C [13]: 96 % of control
- T/C (dose: 400.0 mg/kg/injection, schedule: Q04DX002 (ip), vehicle: saline with Tween-80): 93 % of control

Compound: Cc1ccc(N2CSC(=S)N(c3ccc(C)cc3)C2)cc1
- T/C [9]: 101 % of control
- T/C [6]: 94 % of control
- T/C [10]: 96 % of control
- T/C [7]: 89 % of control
- T/C [11]: 95 % of control
- T/C [8]: 88 % of control

Compound: S=C(c1cccs1)N1CCN(c2ccccc2)CC1
- T/C [1]: 97 % of control
- T/C [2]: 95 % of control
- T/C [3]: 97 % of control

Compound: Cc1c([N+](=O)[O-])cc(C(C)(C)C)c(OC(=O)c2ccccc2)c1[N+](=O)[O-]
- T/C [12]: 123 % of control
- T/C [13]: 116 % of control

Compound: CC(=O)OCC1OC(NC(=O)N(CCCl)N=O)C(OC(C)=O)C(OC(C)=O)C1OC(C)=O (stereo not drawn)
- T/C (dose: 6.0 mg/kg/injection, schedule: Q01DX001 (ip), vehicle: saline with Tween-80): 246 % of control
- T/C (dose: 9.0 mg/kg/injection, schedule: Q01DX001 (ip), vehicle: saline with Tween-80): 342 % of control
- T/C (dose: 13.0 mg/kg/injection, schedule: Q01DX001 (ip), vehicle: saline with Tween-80): 428 % of control
- T/C (dose: 20.0 mg/kg/injection, schedule: Q01DX001 (ip), vehicle: saline with Tween-80): 393 % of control
- T/C (dose: 30.0 mg/kg/injection, schedule: Q01DX001 (ip), vehicle: saline with Tween-80): 324 % of control
